Source: patent publication US20050137220A1 (Pharmacia Corporation, priority 2003, published 2005)
Structures can show the parent of a compound that is named as a salt. Where two headings read alike, the source gives them in different places.

Key:
MK-2 = MK-2 (Homo sapiens, UniProt P49137); assay: Determination of MK-2 IC50 (phosphorylation of HSP-peptide, anion exchange resin capture assay); format: biochemical; details: additional values are replicate IC50 experiments; mixture of stereoisomers implied unless otherwise noted; read-out: MK-2 Avg. IC50
MK-2, sequence (P49137 whole entry, species assumed): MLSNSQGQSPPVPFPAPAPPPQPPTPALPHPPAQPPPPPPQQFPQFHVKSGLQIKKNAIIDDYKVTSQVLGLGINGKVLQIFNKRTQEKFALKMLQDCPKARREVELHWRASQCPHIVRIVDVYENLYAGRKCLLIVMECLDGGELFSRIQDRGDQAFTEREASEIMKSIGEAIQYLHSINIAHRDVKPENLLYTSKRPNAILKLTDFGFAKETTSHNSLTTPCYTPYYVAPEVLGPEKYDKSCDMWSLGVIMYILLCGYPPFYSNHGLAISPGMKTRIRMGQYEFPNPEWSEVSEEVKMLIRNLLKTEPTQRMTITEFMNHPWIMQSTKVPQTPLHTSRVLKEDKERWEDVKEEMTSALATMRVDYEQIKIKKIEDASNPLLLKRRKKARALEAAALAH

U937 cells = assay: U937 Cell TNFα Release Assay; format: cell-based, human; details: Homo sapiens, TNFα by ELISA, mixture of stereoisomers implied unless otherwise noted, read-out: TNF Release Assay Avg. IC50
p38 [1] = details: murine model of endotoxin-induced shock; cited from earlier work
p38 [2] = details: mouse collagen-induced arthritis; cited from earlier work
p38 [3] = details: rat adjuvant arthritis; cited from earlier work
[4] = U-937, 4 h, LPS-stimulated differentiated U937 cells
[5] = U-937, LPS-stimulated differentiated U937 cells

Row | Structure (SMILES) | IC50 (MK-2) [µM] | IC50 (U937 cells; [4]) [µM] | IC50 (U937 cells; [5]) [µM] | mortality (p38 [1]) | development of arthritis (p38 [2]) | development of arthritis (p38 [3])
1 | O=C(O)C1c2[nH]c3ccccc3c2CCN1C(=O)c1ccc(Cl)cc1 (stereo not drawn) [Example 202, 2-(4-chlorobenzeyl)-2,3,4,9-tetrahydro-1H-beta-carboline-1-carboxylic acid] | > 200 | > 100 | – | – | – | –
2 | CCn1c2c(c3cc(OC)ccc31)CCNC2C(=O)OC (stereo not drawn) [Example 208, methyl 9-ethyl-6-methoxy-2,3,4,9-tetrahydro-1H-beta-carboline-1-carboxylate trifluoroacetate] | > 200 | 100 | – | – | – | –
3 | COC(=O)C1NCCc2c1n(C)c1ccc(OC)cc21 (stereo not drawn) [Example 209, methyl 6-methoxy-9-methyl-2,3,4,9-tetrahydro-1H-beta-carboline-1-carboxylate trifluoroacetate] | > 200 | 88.9 | – | – | – | –
4 | COc1ccc2[nH]c3c(=O)n(/N=C/c4ccccc4)c(=O)[nH]c3c2c1 [Example 265, 8-methoxy-3-{[(1E)-phenylmethylidene]amino}-1H-pyrimido[5,4-b]indole-2,4(3H,5H)-dione] | > 200 | – | > 100 | – | – | –
5 | COc1ccc2[nH]c3c(=O)n(N)c(=O)[nH]c3c2c1 [Example 266, 3-amino-8-methoxy-1H-pyrimido[5,4-b]indole-2,4(3H,5H)-dione] | > 200 | – | > 100 | – | – | –
6 | C[S+]([O-])c1ccc(-c2nc(-c3ccncc3)c(-c3ccc(F)cc3)[nH]2)cc1 (stereo not shown) [SB203580] | – | – | – | reduce mortality | inhibit the development | inhibit the development
